The results in this text go back to PubChem BioAssay AID248 (DTP/NCI, 2004).

The test has as its system L1210 leukemia ip in BDF1 mice, survival T/C. Nature of the test: NCI In Vivo Anticancer Drug Screen. Data for tumor model L1210 Leukemia (intraperitoneal) in B6D2F1 (BDF1) mice. As to conditions: endpoint: mean survival time, higher = longer survival. The method, boiled down:
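Survival endpoint. Drug-treated group vs vehicle group, expressed as T divided by C. Tumor passaged by transplantation.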

Setting [1] is: dose: 100.0 mg/kg/injection, schedule: Q01DX009 (ip), vehicle: saline with Tween-80.
The mark [2] stands for this setting: dose: 100.0 mg/kg/injection, schedule: Q04DX003 (ip), vehicle: saline with Tween-80.
Where [3] appears, read: dose: 200.0 mg/kg/injection, schedule: Q01DX009 (ip), vehicle: saline with Tween-80.
Where [4] appears, read: dose: 200.0 mg/kg/injection, schedule: Q04DX003 (ip), vehicle: saline with Tween-80.
Where [5] appears, read: dose: 400.0 mg/kg/injection, schedule: Q01DX009 (ip), vehicle: saline with Tween-80.
Where [6] appears, read: dose: 400.0 mg/kg/injection, schedule: Q04DX003 (ip), vehicle: saline with Tween-80.
The mark [7] stands for this setting: dose: 100.0 mg/kg/injection, schedule: Q04DX002 (ip), vehicle: saline.
Where [8] appears, read: dose: 75.0 mg/kg/injection, schedule: Q01DX001 (ip), vehicle: saline.
[9] abbreviates: dose: 150.0 mg/kg/injection, schedule: Q01DX001 (ip), vehicle: saline.
[10] abbreviates: dose: 100.0 mg/kg/injection, schedule: Q01DX009 (ip), vehicle: Klucel (hydroxypropylcellulose) (HPC).
[11] abbreviates: dose: 100.0 mg/kg/injection, schedule: Q04DX003 (ip), vehicle: Klucel (hydroxypropylcellulose) (HPC).
Where [12] appears, read: dose: 200.0 mg/kg/injection, schedule: Q01DX009 (ip), vehicle: Klucel (hydroxypropylcellulose) (HPC).
[13] abbreviates: dose: 200.0 mg/kg/injection, schedule: Q04DX003 (ip), vehicle: Klucel (hydroxypropylcellulose) (HPC).
Setting [14] is: dose: 400.0 mg/kg/injection, schedule: Q01DX009 (ip), vehicle: Klucel (hydroxypropylcellulose) (HPC).
[15] abbreviates: dose: 400.0 mg/kg/injection, schedule: Q04DX003 (ip), vehicle: Klucel (hydroxypropylcellulose) (HPC).
Setting [16] is: dose: 100.0 mg/kg/injection, schedule: Q01DX009 (ip), vehicle: saline.
The mark [17] stands for this setting: dose: 100.0 mg/kg/injection, schedule: Q04DX003 (ip), vehicle: saline.
Setting [18] is: dose: 200.0 mg/kg/injection, schedule: Q01DX009 (ip), vehicle: saline.

Inconclusive results and toxic doses are left out. Square brackets hold non-standard residues; d marks the D form. Peptide text beside a SMILES is read from it. * marks the point of attachment. ξ: configuration not given here. Cbz = O=C(OCc1ccccc1)*; ξL = CC(C)CC(N)C(=O)O

Take `Cn1cnc([N+](=O)[O-])c1Sc1ncnc2c1ncn2C1OC(CO)C(O)C1O` (stereo unspecified): the T/C reads like this: (dose: 18.0 mg/kg/injection, schedule: Q01DX009 (ip), vehicle: saline) 100 % of control; (dose: 35.0 mg/kg/injection, schedule: Q01DX009 (ip), vehicle: saline) 108 % of control; (dose: 75.0 mg/kg/injection, schedule: Q04DX003 (ip), vehicle: Klucel (hydroxypropylcellulose) (HPC)) 121 % of control; (dose: 110.0 mg/kg/injection, schedule: Q01DX009 (ip), vehicle: saline) 152 % of control; (dose: 165.0 mg/kg/injection, schedule: Q01DX009 (ip), vehicle: saline) 150 % of control; (dose: 176.0 mg/kg/injection, schedule: Q01DX009 (ip), vehicle: other) 164 % of control. In addition, the T/C was 154 % of control (dose: 250.0 mg/kg/injection, schedule: Q01DX009 (ip), vehicle: saline) and 156 % of control (dose: 300.0 mg/kg/injection, schedule: Q04DX003 (ip), vehicle: Klucel (hydroxypropylcellulose) (HPC)).
Take `CCCCCCCCCCCCc1ccc2c(c1)CCc1ccccc1-2`: the T/C was 97 % of control (dose: 100.0 mg/kg/injection, schedule: Q01DX001 (ip), vehicle: carboxymethylcellulose (CMC)); 92 % of control (dose: 200.0 mg/kg/injection, schedule: Q01DX001 (ip), vehicle: carboxymethylcellulose (CMC)); 90 % of control (dose: 400.0 mg/kg/injection, schedule: Q01DX001 (ip), vehicle: carboxymethylcellulose (CMC)).
Turning to `Cn1c2c(c(=O)n(C)c1=O)C(=Nc1ccccc1)C(=O)N2`, the T/C was 101 % of control (dose: 100.0 mg/kg/injection, schedule: Q01DX001 (ip), vehicle: saline); 104 % of control (dose: 200.0 mg/kg/injection, schedule: Q01DX001 (ip), vehicle: saline); 96 % of control (dose: 400.0 mg/kg/injection, schedule: Q01DX001 (ip), vehicle: saline).
`Cc1ccc(S(=O)(=O)Nc2ccc3ncsc3c2[N+](=O)[O-])cc1`: the T/C was 108 % of control under setting [1]; 97 % of control under setting [2]; 93 % of control under setting [3]; 102 % of control under setting [4]; 103 % of control under setting [5]; 102 % of control under setting [6].
As for `Cc1ccc(C(=O)c2ccccc2C(=O)O)cc1C`, the T/C reads like this: under setting [1], 90 % of control; (dose: 100.0 mg/kg/injection, schedule: Q04DX002 (ip), vehicle: saline with Tween-80) 93 % of control; under setting [3], 93 % of control; (dose: 200.0 mg/kg/injection, schedule: Q04DX002 (ip), vehicle: saline with Tween-80) 114 % of control; under setting [5], 87 % of control; (dose: 400.0 mg/kg/injection, schedule: Q04DX002 (ip), vehicle: saline with Tween-80) 101 % of control.
For `CCOC(=O)C(CBr)CBr`, the T/C is 91 % of control under setting [7]; 88 % of control (dose: 200.0 mg/kg/injection, schedule: Q04DX002 (ip), vehicle: saline); 122 % of control (dose: 400.0 mg/kg/injection, schedule: Q04DX002 (ip), vehicle: saline).
In the case of `C\C(=C/C(=N/N=C/c1ccco1)c1ccccc1)c1ccccc1`, the T/C by setting is: under setting [8], 103 % of control; under setting [9], 104 % of control.
In the case of `O=C(Nc1ccc(S(=O)(=O)F)cc1)/C(=C/c1ccc([N+](=O)[O-])cc1)CCc1ccccc1`, the T/C under setting [2] was 105 % of control, the T/C under setting [4] was 97 % of control and the T/C under setting [6] was 94 % of control.
For the compound `N#C/C(=C\c1cccn1Cc1cc2ccccc2c2ccccc12)C(N)=O`, the T/C is 105 % of control (dose: 25.0 mg/kg/injection, schedule: Q04DX002 (ip), vehicle: saline); 108 % of control (dose: 50.0 mg/kg/injection, schedule: Q04DX002 (ip), vehicle: saline); 119 % of control under setting [7].
Turning to `CN(C)C=Nc1ccccc1`, the T/C by setting is: under setting [10], 109 % of control; under setting [11], 111 % of control; under setting [12], 101 % of control; under setting [13], 97 % of control; under setting [14], 100 % of control; under setting [15], 93 % of control.
With `O=C1c2ccccc2-c2nc3ccccc3nc21`, the T/C by setting is: (dose: 45.0 mg/kg/injection, schedule: Q01DX009 (ip), vehicle: Klucel (hydroxypropylcellulose) (HPC)) 95 % of control; (dose: 90.0 mg/kg/injection, schedule: Q01DX009 (ip), vehicle: Klucel (hydroxypropylcellulose) (HPC)) 93 % of control; (dose: 100.0 mg/kg/injection, schedule: Q04DX003 (ip), vehicle: saline sonified) 101 % of control; (dose: 180.0 mg/kg/injection, schedule: Q01DX009 (ip), vehicle: Klucel (hydroxypropylcellulose) (HPC)) 91 % of control; (dose: 200.0 mg/kg/injection, schedule: Q04DX003 (ip), vehicle: saline sonified) 97 % of control; (dose: 400.0 mg/kg/injection, schedule: Q04DX003 (ip), vehicle: saline sonified) 90 % of control.
On to `Cc1cc(C)c(S(=O)(=O)O)cc1C`, for which the T/C by setting is: (dose: 50.0 mg/kg/injection, schedule: Q01DX009 (ip), vehicle: saline) 92 % of control; under setting [16], 92 % of control; under setting [17], 98 % of control; under setting [18], 88 % of control.
For `O=c1oc(-c2ccccc2Cl)nc2cc(Cl)ccc12`, the T/C is, setting by setting: (dose: 50.0 mg/kg/injection, schedule: Q01DX009 (ip), vehicle: saline with Tween-80) 96 % of control; under setting [1], 100 % of control.
Turning to `Cc1cc(C)c(NC(=O)c2ccccc2F)cc1C`, the T/C by setting is: under setting [10], 101 % of control; under setting [12], 100 % of control; under setting [14], 97 % of control.
Take `C[N+](C)(C)c1ccc(/C=N\O)cc1`: the T/C reads like this: (dose: 6.25 mg/kg/injection, schedule: Q04DX003 (ip), vehicle: saline) 95 % of control; (dose: 12.5 mg/kg/injection, schedule: Q04DX003 (ip), vehicle: saline) 102 % of control.
With `CC(C)Cn1cnc2c(SCc3ccc(Cl)cc3Cl)nc(N)nc21`, the T/C runs as follows: under setting [16], 100 % of control; (dose: 100.0 mg/kg/injection, schedule: Q04DX003 (ip), vehicle: acetone) 92 % of control; under setting [18], 102 % of control; (dose: 200.0 mg/kg/injection, schedule: Q04DX003 (ip), vehicle: acetone) 91 % of control; (dose: 400.0 mg/kg/injection, schedule: Q01DX009 (ip), vehicle: saline) 97 % of control; (dose: 400.0 mg/kg/injection, schedule: Q04DX003 (ip), vehicle: acetone) 89 % of control.
For the compound `CC(C)(C)NC(=O)C1C(c2ccccc2)C1c1ccccc1` (stereo unspecified), the T/C reads like this: (dose: 100.0 mg/kg/injection, schedule: Q04DX002 (ip), vehicle: Klucel (hydroxypropylcellulose) (HPC)) 90 % of control; (dose: 200.0 mg/kg/injection, schedule: Q04DX002 (ip), vehicle: Klucel (hydroxypropylcellulose) (HPC)) 113 % of control; (dose: 400.0 mg/kg/injection, schedule: Q04DX002 (ip), vehicle: Klucel (hydroxypropylcellulose) (HPC)) 100 % of control.
For `CN(N)C=O`, the T/C is, setting by setting: under setting [8], 100 % of control; under setting [17], 108 % of control; under setting [9], 96 % of control; (dose: 300.0 mg/kg/injection, schedule: Q01DX001 (ip), vehicle: saline) 98 % of control.
Take `COC(=O)C(CC(C)C)NC(=O)CNC(=O)CNC(=O)OCc1ccccc1` (stereo not drawn) (Cbz-Gly-Gly-[ξL]-OMe): the T/C under setting [11] is 105 % of control, the T/C under setting [13] is 96 % of control and the T/C under setting [15] was 96 % of control.
